Legend:
KP-4 cells = assay: Human pancreatic cancer KP-4 cell activity inhibition test (CellTiter-Glo); format: cell-based; conditions: 5 days
Description: Experimental principle: after co-incubating the MAT2A inhibitor to be tested with KP-4 cells for a period of time, a cell viability measurement method based on ATP content is used to characterize the effect of the tested compound on cell viability.
Experimental material: KP-4 cells (JCRB #JCRB0182); IMDM (Gibco 912440061); fetal bovine serum (EXCELL #FND500); penicillin-streptomycin (Gibco #15140-122); 0.25% Typsin-EDTA (Gibco #252(101-072); DMSO (Sigma #D2650); 96 well plate (Corning #3610); CellTiter-Glo (Promega #G7571)
1. KP-4 cells were cultured in IMDM culture medium containing 10% e fetal bovine serum and 1% penicillin-streptomycin at 37° C. and 5% CO2 in a cell culture incubator. Only cells in logarithmic growth phase were used for subsequent experiments.
2. The cells in logarithmic growth phase were inoculated into a 96 well plate, with a seeding quantity of 500 cells per well, and incubated overnight in a cell culture incubator at 37′C and 5% CO2.
3. The compound was dissolved with DMSO, diluted with culture medium to 10 different concentrations (approximately […]), 3333.3, 1111.1, 370, 123, 41.2, 13.7, 4.6, 1.5, and 0.5 nM) before adding it to the cell plate, and cultured at 37° C. and 5% CO2 for 5 days.
4. CellTiter-Glo reagent was added, and an enzyme-linked immunosorbent assay reader was used to detect cell viability.
Data analysis: the inhibition rate (%) of the compound was calculated and fitted to obtain the IC50 of the tested compound. Calculation method for compound inhibition rate: Compound inhibition rate (%)=(Signal_max−Signal_sample)/(Signal_max−Signal_min)×100, wherein Signal_sample was the sample well reading, indicating the cell activity of the compound inhibition well; Signal_min was the positive control well reading, indicating the background activity without cells; and Signal_max was the negative control well reading, indicating the cell activity of the well without compound inhibition.

MAT2A = MAT2A (Homo sapiens (Human), UniProt P31153); assay: Biochemical test: inhibition of MAT2A enzyme activity (phosphate detection, OD620); conditions: MAT2A his-tag; 150 minutes enzymatic reaction
MAT2A, sequence (P31153 whole entry): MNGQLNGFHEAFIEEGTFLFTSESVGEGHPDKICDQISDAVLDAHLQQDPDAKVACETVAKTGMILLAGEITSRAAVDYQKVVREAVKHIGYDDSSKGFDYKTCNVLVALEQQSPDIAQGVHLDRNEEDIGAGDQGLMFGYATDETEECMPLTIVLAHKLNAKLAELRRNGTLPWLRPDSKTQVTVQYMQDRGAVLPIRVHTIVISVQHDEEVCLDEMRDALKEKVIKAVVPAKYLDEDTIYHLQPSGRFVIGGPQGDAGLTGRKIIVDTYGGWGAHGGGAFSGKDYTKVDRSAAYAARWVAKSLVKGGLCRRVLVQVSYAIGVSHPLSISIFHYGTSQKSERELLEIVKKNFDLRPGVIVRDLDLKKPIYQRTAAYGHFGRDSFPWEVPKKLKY
From the text: Experimental principle: MAT2A can catalyze the conversion of L-methionine and ATP into SAM, inorganic phosphate, and inorganic diphosphate. By adding a chromogenic reagent to the enzymatic reaction system, the content of inorganic phosphates in a sample can be quantitatively detected, thereby characterizing the enzymatic activity of MAT2A.
Experimental material: Tris (Life Science #0497); BSA (Sigma #); MAT2A his-tag (BPS #71401-1); 384 well plate (Corning #3765); L-methionine (Admas #1100469); ATP (Sigma #A7699); MgCl2 (Sigma #M8266); KCl (Sigma #7447-40-7); Brij35 (Sigma #B4184); EDTA (Sigma #E1644)
1. 1×Assaybuffer (buffer composition: Tris, KCl, MgCl2, BSA, Brij35, and EDTA; the solvent was ultrapure water) was prepared. MAT2A his-tag enzyme solution (containing 1.3 μL of MAT2A enzyme and 998.7 μL of 1×Assaybuffer per 1000 μL) and substrate mixed solution (containing 5 μL of ATP, 1.3 μL of L-methionine, and 993.7 μL of 1×Assaybuffer per 1000 μL) were prepared using 1×AssayBuffer.
2. Preparation of compound concentration gradient: The test compound was tested with a starting concentration of 10 μM, and 10 equimolar concentrations were set according to a 3-fold dilution. Specifically, firstly, the compound was diluted into 10 different concentrations of series solutions in a 384 well plate (with final detection concentrations of 10, 3.33, 1.11, 0.37, 0.123, 0.041, 0.0137, 0.0046, 0.0015, and 0.0005 μM), and then 250 nL of the above series solutions was transferred to the 384 well reaction plate using an ultrasonic pipetting system Echo550 for later use. 250 nL of 100% DMSO was added into a negative control well and a positive control well, respectively. Double well test.
3. 15 μL of MAT2A his-tag enzyme solution was added into both the compound well and the positive control well; and 15 μL of 1×Assaybuffer was added into the negative control well.
4. The 384 well plate reaction plate was centrifuged at 1000 rpm for 60 seconds, shaken, mixed well, and incubated for 15 minutes. 10 μL of substrate mixed solution was added into each experimental well of the 384 well reaction plate to initiate the reaction.
5. The 384 well reaction plate was centrifuged at 1000 rpm for 60 seconds, shaken, mixed well, and incubated for 150 minutes.
6. 50 μL of enzyme reaction termination solution Biomol was added into all experimental wells of the 384 well reaction plate to terminate the reaction, centrifuged at 1000 rpm for 60 seconds, and incubated for 15 minutes. OD620 was read and data was processed.
Data analysis: the inhibition rate (%) of the compound was calculated and fitted to obtain the IC50 of the tested compound. Calculation method for compound inhibition rate: Compound inhibition rate (%)=(OD620_max−OD620_stample)/(OD620_max−OD620_min)×100, wherein OD620_stample was the absorbance value of the sample well; OD620 min was the absorbance value of the positive control well, indicating the reading of the wells without enzyme activity; and OD620_max was the absorbance value of the negative control well, indicating the reading of the well without compound inhibition.

[1] = test system: human B-cell lymphoma DOHH-2 cell subcutaneous xenograft tumor; assay: In vivo anti-tumor efficacy in the DOHH-2 cell subcutaneous xenograft tumor model; design: species or system mice; conditions: 80 mg/kg, QD, intragastric; female CB-17 SCID mice, DOHH-2 xenograft
Description: The in vivo anti-tumor efficacy of compound 13 and AG-270 (MAT2A inhibitor,
were evaluated using a human B-cell lymphoma DOHH-2 cell subcutaneous xenograft tumor model.
The female CB-17 SCID mice used were purchased from Beijing Vital River Laboratory Animal Technology Co., Ltd. Tumor cell culture and subcutaneous inoculation: Human B-cell lymphoma DOHH-2 cells (DSMZ) were cultured in vitro in RPMI-1640 medium containing 10% fetal bovine serum and 1% […], and incubated in a 5% CO2 incubator at 37° C. When the required number of cells was reached, the cells were collected, and counted. 0.2 mL (10×10^6) of DOHH-2 cells (with matrix gel added, volume ratio of 1:1) were subcutaneously inoculated into the right back of each mouse. When the average tumor volume reached 100-150 mm^3, random grouping would begin, with 5 mice in each group. The administration group (compound 13 or compound AG-270) was performed intragastric administration twice a day (dosage shown in Table 3), while the negative control group was performed intragastric administration using the same volume of blank solvent per day.
The experimental indicator was to examine whether tumor growth was inhibited, delayed, or cured. The tumor diameter was measured twice a week using a vernier caliper. The formula for calculating tumor volume was: V=0.5a×b^2, wherein a and b indicated the long and short diameters of tumors, respectively.
The anti-tumor efficacy of the compound was evaluated using TGI (%) or relative tumor proliferation rate T/C (%).
TGI (%) reflects the tumor growth inhibition rate. Calculation of TGI (%). TGI (%)=[(1−(average tumor volume at the end of administration in the treatment group-average tumor volume at the beginning of administration in the treatment group))/(average tumor volume at the end of treatment in the negative control group-average tumor volume at the beginning of treatment in the negative control group)]×100%.
Relative tumor proliferation rate TIC (%): The calculation formula was as follows: T/C %=TRTV/CRTV×100% (TRTV: administration group RTV: CRTV: negative control group RTV). The calculation formula of the relative tumor volume (RTV) was RTV=Vt/V0, wherein V0 was the average tumor volume measured at the time of group administration (i.e. d0), Vt was the average tumor volume measured at a certain measurement, and TRTV and CRTV took the same day's data.

| IC50 (KP-4 cells; Homo sapiens, 120 h) | IC50 (MAT2A) | Structure (SMILES) | IC50 (KP-4 cells) | T/C (%) [1] | TGI (%) [1] |
| --- | --- | --- | --- | --- | --- |
| 19.2 nM | 12.9 nM | CCOc1c(-c2ccc(Br)cc2)c(=O)n(-c2ccc3nn(C)cc3c2)c2[nH]ncc12 [Compound 54] |  |  |  |
| 23.7 nM | 17.2 nM | CCOc1c(-c2ccc(C)cc2)c(=O)n(-c2ccc3nn(C)cc3c2)c2[nH]ncc12 [Compound 117] |  |  |  |
|  | > 10000 nM | COc1ccc(-c2cc3cn[nH]c3n(-c3ccc4nn(C)cc4c3)c2=O)cc1 [Compound 1] | > 10000 nM |  |  |
| 38 nM | 12.6 nM | CCOc1c(-c2ccc(OC)nc2)c(=O)n(-c2ccc3nn(C)cc3c2)c2[nH]ncc12 [Compound 126] |  |  |  |
| 6.6 nM | 14.8 nM | CCOc1c(-c2ccc(C3CC3)nc2)c(=O)n(-c2ccc3nn(C)cc3c2)c2[nH]ncc12 [Compound 47] |  |  |  |
| 618 nM | 20.6 nM | CCNc1c(-c2ccc(OC)cc2)c(=O)n(-c2ccc(OC)cc2)c2[nH]ncc12 [Compound 10] |  |  |  |
| 21.4 nM | 13.6 nM | Cn1cc2cc(-n3c(=O)c(-c4ccc(Cl)cc4)c(OCC4CC4)c4cn[nH]c43)ccc2n1 [Compound 50] |  |  |  |
| 57.8 nM | 17.9 nM | Cn1cc2cc(-n3c(=O)c(-c4ccc(F)cc4)c(OCC(F)(F)F)c4cn[nH]c43)ccc2n1 [Compound 49] |  |  |  |
| 28 nM | 62 nM | CNc1c(-c2ccc(OC)cc2)c(=O)n(-c2ccc3nn(C)cc3c2)c2[nH]ncc12 [Compound 4] |  |  |  |
| 8.3 nM | 15.7 nM | Cn1cc2cc(-n3c(=O)c(-c4ccc(C(F)(F)F)nc4)c(OCC4CC4)c4cn[nH]c43)ccc2n1 [Compound 104] |  |  |  |
| 2.5 nM | 16.5 nM | CCOc1c(-c2ccc(Cl)cc2)c(=O)n(-c2ccc3nn(C)cc3c2)c2cn[nH]c12 [Compound 55] |  |  |  |
| 180 nM | 18 nM | CCOc1c(-c2ccc(Cl)cn2)c(=O)n(-c2ccc3nn(C)cc3c2)c2[nH]ncc12 [Compound 62] |  |  |  |
| 659 nM | 13.5 nM | CCOc1c(-c2ccc(OC(F)F)cc2)c(=O)n(-c2ccc3nncn3c2)c2[nH]ncc12 [Compound 26] |  |  |  |
| 234 nM | 28.8 nM | CCNc1c(-c2ccc(C(F)(F)F)nc2)c(=O)n(-c2ccc3nn(C)cc3c2)c2[nH]ncc12 [Compound 106] |  |  |  |
| 41.1 nM | 20.6 nM | CCOc1c(-c2ccc(C(F)(F)F)nc2)c(=O)n(-c2ccc3nn(CC)cc3c2)c2[nH]ncc12 [Compound 102] |  |  |  |
| 6.1 nM | 19.1 nM | CCOc1c(-c2ccc(Cl)cc2)c(=O)n(-c2ccc3nn(C)cc3c2)c2nn(C)cc12 [Compound 134] |  |  |  |

| IC50 (KP-4 cells; Homo sapiens, 120 h) | IC50 (MAT2A) | Structure (SMILES) | IC50 (KP-4 cells) | T/C (%) [1] | TGI (%) [1] |
| --- | --- | --- | --- | --- | --- |
| 36 nM | 11 nM | CCOc1c(-c2ccc(OC(F)F)cc2)c(=O)n(-c2ccc3nn(C4COC4)cc3c2)c2[nH]ncc12 [Compound 37] |  |  |  |
| 64 nM | 19.4 nM | CCOc1c(-c2ccc(OC)cc2)c(=O)n(-c2ccc3nn(C)cc3c2)c2[nH]ncc12 [Compound 3] |  |  |  |
| 32 nM | 18.2 nM | CCOc1c(-c2ccc(Cl)cc2)c(=O)n(-c2ccc3nn(C4COC4)cc3c2)c2[nH]ncc12 [Compound 90] |  |  |  |
| 159 nM | 15.3 nM | CCOc1c(-c2ccc(OC)cc2)c(=O)n(-c2ccc3ncn(C)c3c2)c2[nH]ncc12 [Compound 15] |  |  |  |
| 8.9 nM | 12.4 nM | CCOc1c(-c2ccc(Cl)cc2)c(=O)n(-c2ccc3nn(C)nc3c2)c2[nH]ncc12 [Compound 127] |  |  |  |
| 136 nM | 16 nM | CCOc1c(-c2ccc(F)c(F)c2)c(=O)n(-c2ccc3nn(C)cc3c2)c2[nH]ncc12 [Compound 118] |  |  |  |
| 23.3 nM | 17.8 nM | CCNc1c(-c2ccc(OC(F)F)cc2)c(=O)n(-c2ccc3nn(C)cc3n2)c2[nH]ncc12 [Compound 129] |  |  |  |
|  |  | COc1ccc(-c2c(Nc3ccccn3)[nH]c3c(C4=CCCCC4)c(-c4ccccc4)nn3c2=O)cc1 [AG-270, reference compound] |  | 22.32% | 82.92% |
| 24.7 nM | 15.3 nM | CCNc1c(-c2ccc(OC(F)F)cc2)c(=O)n(-c2ccc3nn(C)cc3c2)c2[nH]ncc12 [Compound 9] |  |  |  |
| 18 nM | 13.9 nM | CCOc1c(-c2ccc(F)cc2)c(=O)n(-c2ccc3nn(C)cc3c2)c2[nH]ncc12 [Compound 17] |  |  |  |
| 13.5 nM | 12.3 nM | COc1ccc(-c2c(OCC(F)(F)F)c3cn[nH]c3n(-c3ccc4nn(C)cc4c3)c2=O)cn1 [Compound 29] |  |  |  |
| 12.7 nM | 13.7 nM | CCOc1c(-c2ccc(Cl)cc2)c(=O)n(-c2ccc3nn(C)c(C)c3c2)c2[nH]ncc12 [Compound 66] |  |  |  |
| 59 nM | 19.6 nM | CCNc1c(-c2ccc(Cl)cc2)c(=O)n(-c2ccc3nn(C)cc3n2)c2[nH]ncc12 [Compound 105] |  |  |  |
| 279 nM | 19.1 nM | CCOc1c(-c2ccc(C(F)(F)F)nc2)c(=O)n(-c2ccc3nn(C4COC4)cc3c2)c2[nH]ncc12 [Compound 92] |  |  |  |
| 236 nM | 18 nM | CCOc1c(-c2cnc(C(F)(F)F)nc2)c(=O)n(-c2ccc3nn(C)cc3c2)c2[nH]ncc12 [Compound 124] |  |  |  |

| Structure (SMILES) | IC50 (KP-4 cells; Homo sapiens, 120 h) | IC50 (MAT2A) | IC50 (KP-4 cells) | T/C (%) [1] | TGI (%) [1] |
| --- | --- | --- | --- | --- | --- |
| CCOc1c(-c2ccc(OC(F)F)cc2)c(=O)n(-c2ccc3nn(CC)cc3c2)c2[nH]ncc12 [Compound 19] |  | 16.6 nM | 7.4 nM |  |  |
